Entries after “also recorded” stand apart in the source; their conditions may differ. Read-outs that look alike come from different tables or passages of the source. Each block holds one compound with its values, some of them ahead of it.
Key:
[1] = test system: dysferlin-null A/J myofibers; assay: Ca2+ signaling: voltage-induced Ca2+ transients (Rhod-2) and Ca2+ waves before and after osmotic shock injury (OSI) in electroporated FDB myofibers; format: cell-based, mouse; conditions: for Ca2+ signaling activity (restoring/protecting amplitude of the Ca2+ transient after OSI): construct electroporated into dysferlin-null A/J FDB fibers, Rhod-2, before and 5 min after OSI; for Ca2+ wave frequency / suppression of Ca2+ waves after OSI: construct expressed in A/J fibers; for y-intercept for Ca transient (normalized Ca release vs amount of Venus construct in each fiber) / y-intercept for wave frequency (Ca wave frequency vs amount of Venus construct in each fiber): intercept at low expression level, FIG. 2E / FIG. 4E; for Effect on amplitude of Ca2+ transients: A/J fibers, FIG. 8
Text: (§1) FIGS. 2A-2E show the DYSF-C2A distribution and partial protection against loss of Ca^2+ transient and development of Ca^2+ waves after OSI. The construct in FIG. 2A was electroporated into Flexor digitorum brevis (FDB) muscles of dysferlin-null A/J mice and imaged 10 d later. […] Distribution of the Venus construct is indicated to the right. Recovery is partial (in the upper region of fiber). FIG. 2D quantitates results from several dozen fibers of each type. […] Higher levels of expression show more consistent recoveries and suppression of waves than lower levels.
To assay Ca^2+ transients, Rhod-2 was added to myofibers as the Rhod2-AM derivative at a concentration of 4.4 μM, or almost 500× higher than the concentration of BAPTA-AM that effectively restores the WT phenotype. Rhod-2 is essentially rhodamine on a BAPTA backbone, so its mode of binding Ca^2+ is identical to that of BAPTA. Rhod-2 has a (calculated) Stokes' radius ˜20% larger than BAPTA; it has a lower affinity for Ca^2+ and its solubility in DMSO is ˜20× lower than BAPTA's. Rhod-2 appears to distribute uniformly in the myoplasm under these conditions of loading.

[2] = test system: dysferlin-null A/J myofibers; conditions: dysferlin-null fibers, background / known results, cited from earlier work
cultured myofibers = assay: Accumulation of chelator in treated myofibers, estimated with fluorescent variant Fluo4-AM; format: cell-based; conditions: 10 nM extracellular concentration
Description: This concentration of BAPTA in myofibers is sufficient to restore elevated myoplasmic [Ca^2+ ] of 150-200 nM to levels close to WT levels of ˜100 nM. This can explain why as little as 10 nM BAPTA-AM can restore the WT phenotype.

FDB muscles of A/J mice [3] = assay: Membrane repair after infrared laser injury in the presence of FM4-64 dye; format: cell-based, mouse; conditions: A/J FDB muscle, FM4-64 fluorescence, area under curve
Text: FIGS. 3A-3B show the membrane repair by the DYSF-C2A domain. FDB muscles of A/J mice were electroporated with expression plasmids for WT DYSF or DYSF-C2A. 7d later muscles were removed and injured by infrared laser illumination in the presence of FM4-64 lipophilic dye. […] Means±SEM, n=7, *p<0.01 by ANOVA followed with Tukey's post-hoc test.

[4] = test system: dysferlin-null A/J myofibers; assay: Distribution of Venus-tagged constructs (triad junctions vs Z-disks) in transfected myofibers; format: cell-based, mouse; conditions: FIG. 6
Text: as §1
The constructs in FIG. 4A were electroporated and visualized as in FIG. 2. […] Recovery is complete. FIG. 4D quantitates results from several dozen fibers transfected with each construct. […] Note the high level of Ca release and low frequency of waves indicated by the y-intercepts at low transfection levels.
A Venus-tagged version of the C2 domain of PKCα was expressed in both control (C57Bl/6) (FIG. 12A) and dysferlin-null (A/J) myofibers (FIG. 12B) and the transfected fibers were imaged. […] They help to explain the ability of the chimeric constructs containing Ven-C2-PKCα to potentiate the beneficial effects of the DYSF-C2A domain.

Solubility in DMSO = format: physicochemical
FDB muscles of A/J mice [5] = conditions: dysferlin-null fibers, background / known results; cited from earlier work
dysferlin and PKCα = assay: Colocalization and co-immunoprecipitation of dysferlin and PKCα; format: cell-based

Compound: W52R: full length dysferlin with pathogenic mutation W52R in C2A [reference compound]
Ca2+ signaling activity (restoring/protecting amplitude of the Ca2+ transient after OSI) [1]: inactivated full length dysferlin

Compound: O=C1CN(/N=C/c2ccc(-c3ccc([N+](=O)[O-])cc3)o2)C(O)=N1 [dantrolene]
Ca2+ signaling (Ca2+ transient amplitude, loss after OSI, waves), earlier studies [2]: prevented these changes

Compound: COc1ccc([C@@H]2Sc3ccccc3N(CCN(C)C)C(=O)[C@@H]2OC(C)=O)cc1 [diltiazem]
Ca2+ signaling (Ca2+ transient amplitude, loss after OSI, waves), earlier studies [2]: prevented these changes

Intracellular vs extracellular concentration (cultured myofibers): 7-10 fold
Compound: CC(=O)OCOC(=O)CN(CC(=O)OCOC(C)=O)c1ccc(C)cc1OCCOc1cc(-c2c3cc(F)c(=O)cc-3oc3cc(OCOC(C)=O)c(F)cc23)ccc1N(CC(=O)OCOC(C)=O)CC(=O)OCOC(C)=O [Fluo4-AM]

Compound: C2-PKCα-DYSF-C2A: chimeric construct with C2-PKCα just N-terminal to DYSF-C2A, tagged with Venus; SEQ ID NO: 11
Ca2+ signaling activity (restoring/protecting amplitude of the Ca2+ transient after OSI) [1]: results identical to WT DYSF; also recorded: indistinguishable from WT DYSF in restoring the amplitude of the Ca^2+ transient | Ca2+ wave frequency / suppression of Ca2+ waves after OSI [1]: almost as effective in suppressing Ca^2+ waves | y-intercept for Ca transient (normalized Ca release vs amount of Venus construct in each fiber) [1]: 3.7 | y-intercept for wave frequency (Ca wave frequency vs amount of Venus construct in each fiber) [1]: 0.11 | Membrane repair activity (FDB muscles of A/J mice [3]): improved repair as well as WT DYSF; also recorded: just as effective as WT DYSF in supporting membrane repair | Transfected fibers with construct targeted to / concentrated at TJs [4]: ~25%

Compound: V67D: full length dysferlin with pathogenic mutation V67D in C2A [reference compound]
Ca2+ signaling activity (restoring/protecting amplitude of the Ca2+ transient after OSI) [1]: inactivated full length dysferlin

Compound: CC(=O)OCOC(=O)CN(CC(=O)OCOC(C)=O)c1ccccc1OCCOc1ccccc1N(CC(=O)OCOC(C)=O)CC(=O)OCOC(C)=O [BAPTA-AM, reference compound]
Restoration of WT phenotype (Ca2+ transient before and after OSI, Ca2+ waves) ([1]; 10 nM added to cultured A/J myofibers): effectively restores A/J myofibers to the WT phenotype

Solubility in DMSO relative to BAPTA (Solubility in DMSO): ~20 × lower
Compound: Rhod-2

Compound: WT dysferlin: wild type full length dysferlin introduced by electroporation, positive control
Ca2+ signaling (Ca2+ transient amplitude, loss after OSI, waves), earlier studies [2]: restores full activity | Ca2+ signaling (Ca2+ transient amplitude, loss after OSI, waves), earlier studies ([2]; listed as wild type dysferlin): restores the amplitude of Ca^2+ transients to WT levels | Membrane repair, earlier studies (FDB muscles of A/J mice [5]): restores full activity

Compound: DYSF-C2A: C2A domain of dysferlin (AF075575.1, amino acids 1-100) expressed on its own as a Venus fusion protein; SEQ ID NO: 4
Ca2+ signaling activity (restoring/protecting amplitude of the Ca2+ transient after OSI) [1]: intermediate between Venus (negative control) and WT DYSF (positive control) controls; also recorded: partially restored some Ca^2+ signaling activity | Ca2+ wave frequency / suppression of Ca2+ waves after OSI [1]: low frequency of Ca^2+ waves, only slightly more than with WT DYSF | y-intercept for Ca transient (normalized Ca release vs amount of Venus construct in each fiber) [1]: 0.47 | y-intercept for wave frequency (Ca wave frequency vs amount of Venus construct in each fiber) [1]: 0.37 | Membrane repair activity (FDB muscles of A/J mice [3]): improved repair as well as WT DYSF; also recorded: fully stabilized membrane repair activity

Compound: 2 C2-PKCα domains with a single DYSF-C2A domain: construct that contains 2 C2-PKCα domains with a single DYSF-C2A domain; SEQ ID NO: 13
Transfected fibers with construct targeted to / concentrated at TJs [4]: 75%

Compound: CCCCCCCCCCCCCC(=O)O[C@@H]1[C@@H](C)[C@@]2(O)[C@@H](C=C(CO)C[C@]3(O)C(=O)C(C)=C[C@@H]23)[C@@H]2C(C)(C)[C@]12OC(C)=O [PMA, phorbol 12-myristate 13-acetate, reference compound]
Effect on amplitude of Ca2+ transients [1]: significantly alter the amplitude of the Ca^2+ transients | Effect on colocalization of dysferlin and PKCα in myofibers and on co-IP from HEK cells (dysferlin and PKCα): neither phorbol 12-myristate 13-acetate (PMA) nor staurosporine, drugs that activate and inhibit PKCα, respectively, have any effect

Compound: A84V: full length dysferlin with polymorphism A84V in C2A [reference compound]
Ca2+ signaling activity (restoring/protecting amplitude of the Ca2+ transient after OSI) [1]: left dysferlin's Ca^2+ signaling activity intact

Compound: V68L: full length dysferlin with polymorphism V68L in C2A [reference compound]
Ca2+ signaling activity (restoring/protecting amplitude of the Ca2+ transient after OSI) [1]: left dysferlin's Ca^2+ signaling activity intact

Compound: C2 domain of PKCα: isolated C2 domain of PKCα (XP_024306597.1, residues 71-229), tagged with a Venus moiety
Ca2+ signaling activity (restoring/protecting amplitude of the Ca2+ transient after OSI) [1]: completely without activity | Ca2+ signaling activity (restoring/protecting amplitude of the Ca2+ transient after OSI) ([1]; listed as PKCα-C2): failed to replicate the effects of DYSF-C2A | Ca2+ signaling activity (restoring/protecting amplitude of the Ca2+ transient after OSI) ([1]; listed as PKCα-C2 domain): inactive | Membrane repair activity (FDB muscles of A/J mice [3]): inactive

Compound: CN[C@@H]1C[C@H]2O[C@@](C)([C@@H]1OC)n1c3ccccc3c3c4c(c5c6ccccc6n2c5c31)C(=O)NC4 [staurosporine, reference compound]
Effect on amplitude of Ca2+ transients [1]: significantly alter the amplitude of the Ca^2+ transients

— patent US20240294588A1, “C2 Domain Therapeutics and Uses Thereof” (University of Maryland, Baltimore, priority 2021, published 2024)
